Experiment [1] relates to B. subtilis var. globigii (ATCC. 9372). Particulars: 50° C.; for CFU/Swab / logCFU/Swab / Average (logCFU/Swab) / Log reduction: Table Two; for CFU/Swab / logCFU/Swab: contact times as in the label, one value per replicate; for Average (logCFU/Swab): mean of replicates; for Log reduction: versus inoculated untreated control (6.66); for bacteriocidal effect (in words): Table Two conditions. Here is the method:
(§1) The experiments were designed to identify the conditions optimal for polymer sterilization and also explore the boundary areas to determine the conditions limiting the efficacy of the treatment. Each polymer strip was inoculated by drop spotting approximately 100 micro-liters and coating the surface by swabbing the surface of the polyethylene strip. The culture was allowed to dry before sterilization. Each strip of polyethylene was treated by vigorously agitating the strip in the appropriate treatment solutions. Each treated polymer strip was then treated with catalase to inactivate residual peroxide, swabbed and plated using TGE incubated at 35° C. for two days.
A log measurement value is provided below each of the non-log values. The sterilization was conducted at 50° C.

Experiment [2] has the same test system. Here is the method: as §1
Five replicate polymer strips were used for each of the two methods of the present invention. A log measurement value is provided below each of the non-log values. The first method uses hydrogen peroxide first and then an alkaline solution of sodium hydroxide. The second method uses an alkaline solution of sodium hydroxide first and then hydrogen peroxide. The sterilization was conducted at 50° C.
In Table Three, a solution of 0.1 Normal potassium hydroxide (KOH) was utilized with a solution of 3% hydrogen peroxide at a temperature of 35° C. for 30 seconds.

The mark [3] stands for this setting: Table Three, 35° C. for 30 seconds, one value per replicate.

Values joined by “and” are separate entries in the source; they are usually repeats but may differ in a detail not shown here. Equal values may be shown once. Read-outs that look alike come from different tables or passages of the source.

As for `OO` [50° C. 30 s 35% H2O2 10 s catalase, hydrogen peroxide], in experiment [1] (thirty second treatment), the rate of inactivation is reported as 1.45 log per 10 seconds of treatment. In experiment [1], the CFU/Swab was 570 CFU/Swab and 20 CFU/Swab and 270 CFU/Swab and 2700 CFU/Swab and 40 CFU/Swab; the logCFU/Swab was 1.60 logCFU/Swab and 2.76 logCFU/Swab and 1.30 logCFU/Swab and 2.43 logCFU/Swab and 3.43 logCFU/Swab; the “Average (logCFU/Swab)” value is reported as 2.30; the Log reduction was found to be 4.35. For the same molecule, the Log reduction in experiment [1] (listed as thirty second hydrogen peroxide treatment (column 4)) was found to be 4.35.

As for `OO` [H2O2 Control, hydrogen peroxide], in experiment [2] (setting [3]), the CFU/Swab is reported as 5,200,000 CFU/Swab and the logCFU/Swab came out at 6.72 logCFU/Swab.

On to `OO` [50° C. 30 s 3.5% H2O2 10 s catalase, hydrogen peroxide], for which, in experiment [1], the “bacteriocidal effect (in words)” value is “no effect”; the CFU/Swab was 4,200,000 CFU/Swab and 4,000,000 CFU/Swab and 3,000,000 CFU/Swab and 5,000,000 CFU/Swab and 1,600,000 CFU/Swab; the logCFU/Swab is 6.20 logCFU/Swab and 6.62 logCFU/Swab and 6.60 logCFU/Swab and 6.48 logCFU/Swab and 6.70 logCFU/Swab; the “Average (logCFU/Swab)” value was 6.52. This molecule registered a Log reduction in experiment [1] of 0.14.

For `[Na+].[OH-]` [50° C. 10 s 0.25M NaOH Control, sodium hydroxide], in experiment [1], the “bacteriocidal effect (in words)” value is listed as “no bacteriocidal effect”; the CFU/Swab is 3,800,000 CFU/Swab and 7,900,000 CFU/Swab and 5,400,000 CFU/Swab and 6,300,000 CFU/Swab; the logCFU/Swab was 6.80 logCFU/Swab and 6.58 logCFU/Swab and 6.90 logCFU/Swab and 6.73 logCFU/Swab; the “Average (logCFU/Swab)” value worked out at 6.75.

With `[Na+].[OH-]` [1M NaOH Control, sodium hydroxide], the CFU/Swab in experiment [2] (Table One, 50° C., survivors after treatment, inoculum 10^6, one value per replicate strip) is 5,700 CFU/Swab and 210 CFU/Swab. Further, in experiment [2] (Table One, 50° C., survivors after treatment, one value per replicate strip), the logCFU/Swab is 3.76 logCFU/Swab and 2.32 logCFU/Swab.

For the origin of these results see patent US20070006551A1, “Method and apparatus for sterilizing and filling containers” (priority 2005, published 2007).
